Measured values reported in patent US8445409B2, “Use of 5-benzyloxymethyl-1,2-isoxazoline derivatives as a herbicide” (Moghu Research Center Ltd., priority 2007, dated 2013).

Columns and labels:
Zoysiagrass = assay: Selective control of grassy weeds in turf (Example 3-1), visual rating; assay type: in vivo; conditions: four weeks after spray, 0-100 scale (100=completely killed)
Text: (§1) Commercially available sod mats of zoysiagrass and bentgrass, Kentucky bluegrass, and perennial ryegrass were purchased. After cutting each turf sod mat in a size of 10 cm×20 cm, it was transplanted to a rectangular plastic pot having a surface area of 300 cm^2 wherein mixed soils including blend of a bed soil (Boonong, Horticultural Nursery Soil No. 3) and sandy loam soil were filled (mixing ratio, 1:1). After transplanting, the grass was mowed (0.5˜1.0 cm in height) once a week, and kept for one month in a greenhouse maintained at 25˜30° C. (day) or 15˜25° C. (night). Then three strips of 1 cm width were removed by excision with a scissor. The open space was filled with a new soil, and seeds of large crabgrass, annual bluegrass, or goosegrass were sown. The pots were kept in a greenhouse. When the said weeds were grown up to the 3 leaf stage, another set was prepared in the same method. The first set represented post-emergence (POST) and the second set represented pre-emergence (PRE) stages of the weeds (large crabgrass, annual bluegrass, goosegrass). Then the test compound was applied at 0.25, 0.5. 1.0, 2.0, and 4.0 kg/ha. Spray was made by a track sprayer equipped with a Teejet 8002 nozzle. Spray volume was adjusted to 2,000 L/ha. The spray solution was prepared by dissolving the “test substance” in acetone and adding the same volume of 0.2% (v/v) Tween 20 aqueous solution. Four weeks after the spray of the test substance, phytotoxicity to the turfgrass and herbicidal activity to the said weeds were visually evaluated based on 0 to 100 scale (0: no phytotoxic effect, 100: completely killed). The test was conducted in a completely randomized design with 3 replicates.

Kentucky bluegrass = assay: as above; assay type: in vivo; conditions: four weeks after spray, 0-100 scale (100=completely killed)
Text: as §1

Annual bluegrass = assay: as above; assay type: in vivo; conditions: four weeks after spray, 0-100 scale (100=completely killed); for Herbicidal activity, visual: Weeds ABG (POST): 3 leaf stage
Text: as §1

Large crabgrass = assay: as above; assay type: in vivo; conditions: four weeks after spray, 0-100 scale (100=completely killed); for Herbicidal activity, visual: Weeds LCG (POST): 3 leaf stage
Text: as §1

Perennial ryegrass = assay: as above; assay type: in vivo; conditions: four weeks after spray, 0-100 scale (100=completely killed)
Text: as §1

Bentgrass = assay: as above; assay type: in vivo; conditions: four weeks after spray, 0-100 scale (100=completely killed)
Text: as §1

Goosegrass = assay: as above; assay type: in vivo; conditions: four weeks after spray, 0-100 scale (100=completely killed); for Herbicidal activity, visual: Weeds GSG (POST): 3 leaf stage
Text: as §1

Barnyardgrass = assay: Upland pot test, pre-/post-emergence spray, visual rating; assay type: in vivo, barnyardgrass (ECHCG); conditions: 2 weeks after spray, 0-10 scale (10=completely killed)
Text: (§2) To a rectangular plastic pot having a surface area of 300 cm^2, mixed soils including blend bed soil (Boonong, Horticultural Bed Soil No. 3) and sandy loam soil were filled (mixing ratio, 1:1). Seeds of the eight different types of weeds including gramineous weed such as barnyardgrass, large crabgrass, green foxtail, fall panicum, and broadleaf weed such as common cocklebur, velvetleaf, Indian joint-vetch, and morningglory were sown. To the other pot containing the same soil mixture, seeds of the five different types of crops including corn, soybean, cotton, wheat and rice were sown. Pots were kept in a greenhouse of which temperature was maintained at 25˜30° C. (day) or 15˜25° C. (night), and regularly watered.
After fourteen days and when the crops and the weeds reached their three-leaf stage, the other set of a crop pot and a weed pot were prepared by the same method as described above. Then, “test substance” was sprayed thereto. In this case, spray treatment to the plants after they have grown for two weeks corresponded to post-emergence treatment while spray treatment to the seeds right after the sowing corresponded to pre-emergence treatment. Spray was carried out by using a track sprayer (R&D Sprayer, USA) equipped with a Teejet 8002 nozzle (Spraying Systems Co., USA). Spray volume was adjusted to 300 L/ha. The spray solution was prepared by dissolving the “test substance” in acetone and adding the same volume of 0.2% (v/v) Tween 20 aqueous solution. Dosage of the test substance was 500, 250, 125, 62.5 or 31.3 g/ha. Two weeks after the spray of the test substance, efficacy and phytotoxic effect to the crops and the weeds were visually measured based on a 0 to 10 scale (0: no efficacy, 10: completely killed).

[1] = system: crops such as corn, rice, wheat, soybean and cotton; assay: Upland pot test, crops as a group; assay type: in vivo; conditions: pre-emergence, 500 g/ha
Text: as §2
After fourteen days and when the crops and the weeds reached their three-leaf stage, the other set of a crop pot and a weed pot were prepared by the same method as described above. Then, “test substance” was sprayed thereto. In this case, spray treatment to the plants after they have grown for two weeks corresponded to post-emergence treatment while spray treatment to the seeds right after the sowing corresponded to pre-emergence treatment. […] Two weeks after the spray of the test substance, efficacy and phytotoxic effect to the crops and the weeds were visually measured based on a 0 to 10 scale (0: no efficacy, 10: completely killed).

[2] = system: all the tested gramineous weeds; assay: Example 3-1, gramineous weeds as a group; assay type: in vivo, large crabgrass, annual bluegrass, goosegrass; conditions: PRE and POST timings, 0.25 kg/ha to 4 kg/ha
Text: (§3) Commercially available sod mats of zoysiagrass and bentgrass, Kentucky bluegrass, and perennial ryegrass were purchased. After cutting each turf sod mat in a size of 10 cm×20 cm, it was transplanted to a rectangular plastic pot having a surface area of 300 cm^2 wherein mixed soils including blend of a bed soil (Boonong, Horticultural Nursery Soil No. 3) and sandy loam soil were filled (mixing ratio, 1:1). After transplanting, the grass was mowed (0.5˜1.0 cm in height) once a week, and kept for one month in a greenhouse maintained at 25˜30° C. (day) or 15˜25° C. (night). Then three strips of 1 cm width were removed by excision with a scissor. The open space was filled with a new soil, and seeds of large crabgrass, annual bluegrass, or goosegrass were sown. The pots were kept in a greenhouse. When the said weeds were grown up to the 3 leaf stage, another set was prepared in the same method. The first set represented post-emergence (POST) and the second set represented pre-emergence (PRE) stages of the weeds (large crabgrass, annual bluegrass, goosegrass). Then the test compound was applied at 0.25, 0.5. 1.0, 2.0, and 4.0 kg/ha. […] Four weeks after the spray of the test substance, phytotoxicity to the turfgrass and herbicidal activity to the said weeds were visually evaluated based on 0 to 100 scale (0: no phytotoxic effect, 100: completely killed). […]

turfgrasses = assay: Example 3-1, turfgrasses as a group; assay type: in vivo; conditions: 2 kg/ha or below
Text: as §3

Compound: Cc1ccsc1C1=NOC(C)(COCc2c(F)cccc2F)C1 (stereo not drawn) [test substance, 5-(2,6-difluorobenzyl)oxymethyl-5-methyl-3-(4-methylthiophen-5-yl)-1,2-isoxazoline]
- Phytotoxicity, visual: Turfgrass ZSG (Zoysiagrass; 0.25 kg/ha): 0
- Phytotoxicity, visual: Turfgrass ZSG (Zoysiagrass; 0.5 kg/ha): 0
- Phytotoxicity, visual: Turfgrass ZSG (Zoysiagrass; 1 kg/ha): 0
- Phytotoxicity, visual: Turfgrass ZSG (Zoysiagrass; 2 kg/ha): 0
- Phytotoxicity, visual: Turfgrass ZSG (Zoysiagrass; 4 kg/ha): 12
- Phytotoxicity, visual: Turfgrass KBG (Kentucky bluegrass; 0.25 kg/ha): 0
- Phytotoxicity, visual: Turfgrass KBG (Kentucky bluegrass; 0.5 kg/ha): 0
- Phytotoxicity, visual: Turfgrass KBG (Kentucky bluegrass; 1 kg/ha): 0
- Phytotoxicity, visual: Turfgrass KBG (Kentucky bluegrass; 2 kg/ha): 0
- Phytotoxicity, visual: Turfgrass KBG (Kentucky bluegrass; 4 kg/ha): 21
- Herbicidal activity, visual: Weeds ABG (POST) (Annual bluegrass; 0.25 kg/ha): 60
- Herbicidal activity, visual: Weeds ABG (PRE) (Annual bluegrass; 0.25 kg/ha): 100
- Herbicidal activity, visual: Weeds ABG (POST) (Annual bluegrass; 0.5 kg/ha): 75
- Herbicidal activity, visual: Weeds ABG (PRE) (Annual bluegrass; 0.5 kg/ha): 100
- Herbicidal activity, visual: Weeds ABG (POST) (Annual bluegrass; 1 kg/ha): 83
- Herbicidal activity, visual: Weeds ABG (PRE) (Annual bluegrass; 1 kg/ha): 100
- Herbicidal activity, visual: Weeds ABG (POST) (Annual bluegrass; 2 kg/ha): 92
- Herbicidal activity, visual: Weeds ABG (PRE) (Annual bluegrass; 2 kg/ha): 100
- Herbicidal activity, visual: Weeds ABG (POST) (Annual bluegrass; 4 kg/ha): 95
- Herbicidal activity, visual: Weeds ABG (PRE) (Annual bluegrass; 4 kg/ha): 100
- Herbicidal activity, visual: Weeds LCG (POST) (Large crabgrass; 0.25 kg/ha): 80
- Herbicidal activity, visual: Weeds LCG (PRE) (Large crabgrass; 0.25 kg/ha): 100
- Herbicidal activity, visual: Weeds LCG (POST) (Large crabgrass; 0.5 kg/ha): 90
- Herbicidal activity, visual: Weeds LCG (PRE) (Large crabgrass; 0.5 kg/ha): 100
- Herbicidal activity, visual: Weeds LCG (POST) (Large crabgrass; 1 kg/ha): 95
- Herbicidal activity, visual: Weeds LCG (PRE) (Large crabgrass; 1 kg/ha): 100
- Herbicidal activity, visual: Weeds LCG (POST) (Large crabgrass; 2 kg/ha): 100
- Herbicidal activity, visual: Weeds LCG (PRE) (Large crabgrass; 2 kg/ha): 100
- Herbicidal activity, visual: Weeds LCG (POST) (Large crabgrass; 4 kg/ha): 100
- Herbicidal activity, visual: Weeds LCG (PRE) (Large crabgrass; 4 kg/ha): 100
- Phytotoxicity, visual: Turfgrass PRG (Perennial ryegrass; 0.25 kg/ha): 0
- Phytotoxicity, visual: Turfgrass PRG (Perennial ryegrass; 0.5 kg/ha): 0
- Phytotoxicity, visual: Turfgrass PRG (Perennial ryegrass; 1 kg/ha): 0
- Phytotoxicity, visual: Turfgrass PRG (Perennial ryegrass; 2 kg/ha): 0
- Phytotoxicity, visual: Turfgrass PRG (Perennial ryegrass; 4 kg/ha): 0
- Phytotoxicity, visual: Turfgrass BTG (Bentgrass; 0.25 kg/ha): 0
- Phytotoxicity, visual: Turfgrass BTG (Bentgrass; 0.5 kg/ha): 0
- Phytotoxicity, visual: Turfgrass BTG (Bentgrass; 1 kg/ha): 0
- Phytotoxicity, visual: Turfgrass BTG (Bentgrass; 2 kg/ha): 0
- Phytotoxicity, visual: Turfgrass BTG (Bentgrass; 4 kg/ha): 10
- Herbicidal activity, visual: Weeds GSG (POST) (Goosegrass; 0.25 kg/ha): 85
- Herbicidal activity, visual: Weeds GSG (PRE) (Goosegrass; 0.25 kg/ha): 100
- Herbicidal activity, visual: Weeds GSG (POST) (Goosegrass; 0.5 kg/ha): 95
- Herbicidal activity, visual: Weeds GSG (PRE) (Goosegrass; 0.5 kg/ha): 100
- Herbicidal activity, visual: Weeds GSG (POST) (Goosegrass; 1 kg/ha): 100
- Herbicidal activity, visual: Weeds GSG (PRE) (Goosegrass; 1 kg/ha): 100
- Herbicidal activity, visual: Weeds GSG (POST) (Goosegrass; 2 kg/ha): 100
- Herbicidal activity, visual: Weeds GSG (PRE) (Goosegrass; 2 kg/ha): 100
- Herbicidal activity, visual: Weeds GSG (POST) (Goosegrass; 4 kg/ha): 100
- Herbicidal activity, visual: Weeds GSG (PRE) (Goosegrass; 4 kg/ha): 100
- Visual measurement: Gramineous weed, Barnyardgrass (Barnyardgrass; post-emergence foliar spray at three leaf stage, 31.2 g/ha): 0
- Visual measurement: Gramineous weed, Barnyardgrass (Barnyardgrass; post-emergence foliar spray at three leaf stage, 62.5 g/ha): 2
- Visual measurement: Gramineous weed, Barnyardgrass (Barnyardgrass; post-emergence foliar spray at three leaf stage, 125 g/ha): 3
- Visual measurement: Gramineous weed, Barnyardgrass (Barnyardgrass; post-emergence foliar spray at three leaf stage, 250 g/ha): 7
- Visual measurement: Gramineous weed, Barnyardgrass (Barnyardgrass; post-emergence foliar spray at three leaf stage, 500 g/ha): 9
- Visual measurement: Gramineous weed, Barnyardgrass (Barnyardgrass; pre-emergence soil treatment, 31.2 g/ha): 2
- Visual measurement: Gramineous weed, Barnyardgrass (Barnyardgrass; pre-emergence soil treatment, 62.5 g/ha): 4
- Visual measurement: Gramineous weed, Barnyardgrass (Barnyardgrass; pre-emergence soil treatment, 125 g/ha): 10
- Visual measurement: Gramineous weed, Barnyardgrass (Barnyardgrass; pre-emergence soil treatment, 250 g/ha): 10
- Visual measurement: Gramineous weed, Barnyardgrass (Barnyardgrass; pre-emergence soil treatment, 500 g/ha): 10
- Phytotoxic effect to crops (in words) [1]: completely safe without any phytotoxic effect
- Control of tested gramineous weeds (in words) [2]: very effectively
- Visible injury to turfgrasses (in words) (turfgrasses): did not show any visible injury
